Data taken from publication PMC5080452 (Bioorganic & Medicinal Chemistry, 2016).

What was measured:
[1] = in vitro; conditions: pig, PAMPA
[2] = molecular target: T1, Electrophorus electricus (Ee) AChE (Electrophorus electricus, UniProt O42275); test: Acetylcholinesterase inhibitory activity (Ellman method); type: biochemical; conditions: mean ± SEM, read-out: EeAChE IC50
T1 construct: purchased Sigma-Aldrich
Protocol: The inhibitory activity against Electrophorus electricus (Ee) AChE (Sigma–Aldrich) was evaluated spectrophotometrically by the method of Ellman et al.[56] […] Inhibition curves were performed in duplicates using at least 10 increasing concentrations of inhibitors and preincubated for 20 min at 37 °C before adding the substrate. One duplicate sample without inhibitor was always present to yield 100% of AChE activity.
Results are expressed as mean ± SEM of at least 4 experiments performed in duplicate.

[3] = commercial drugs for PAMPA-BBB assay validation; cited from earlier work

T1 sequence (O42275 24-633): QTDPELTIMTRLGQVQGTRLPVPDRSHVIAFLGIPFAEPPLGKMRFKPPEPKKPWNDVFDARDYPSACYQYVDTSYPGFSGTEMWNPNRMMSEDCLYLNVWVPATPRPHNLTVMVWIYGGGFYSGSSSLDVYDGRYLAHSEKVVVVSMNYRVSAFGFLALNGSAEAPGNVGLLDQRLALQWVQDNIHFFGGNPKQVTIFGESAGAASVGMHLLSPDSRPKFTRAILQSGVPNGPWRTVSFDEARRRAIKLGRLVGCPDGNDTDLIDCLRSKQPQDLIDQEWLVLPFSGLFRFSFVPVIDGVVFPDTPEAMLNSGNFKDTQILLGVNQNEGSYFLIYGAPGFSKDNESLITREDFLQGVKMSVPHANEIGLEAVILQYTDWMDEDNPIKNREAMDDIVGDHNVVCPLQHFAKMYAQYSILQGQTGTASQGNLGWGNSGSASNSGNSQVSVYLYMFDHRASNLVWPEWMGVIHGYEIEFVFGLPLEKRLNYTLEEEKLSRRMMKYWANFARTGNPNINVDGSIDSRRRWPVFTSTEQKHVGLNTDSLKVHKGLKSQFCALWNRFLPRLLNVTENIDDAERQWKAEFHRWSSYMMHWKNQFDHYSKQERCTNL

Compound | Papp [1] [×10⁻⁶ cm/s] | IC50 [2] [nM] | Pe, literature value [3]
CC1=CC2Cc3nc4cc(Cl)ccc4c(NCCCN4CCOCC4)c3C(C1)C2 (racemic) [compound 8, (±)-3-Chloro-6,7,10,11-tetrahydro-9-methyl-12-[(3-morpholinopropyl)amino]-7,11-methanocycloocta[b]quinoline] | 15 ± 1 | 13.3 ± 0.8 | –
N=C(N)NCCCCCCCCCNc1c2c(nc3cc(Cl)ccc13)CCCC2 [16e, 1-{9-[(6-Chloro-1,2,3,4-tetrahydroacridin-9-yl)amino]nonyl}guanidine] | 6.7 ± 0.4 | 16.4 ± 1.5 | –
CC1=CC2Cc3nc4cc(Cl)ccc4c(NCCCCCCCCCC#N)c3C(C1)C2 (centres unmarked) [4f] | 11.3 ± 1.2 | 9.67 ± 0.89 | –
CC1=CC2Cc3nc4cc(Cl)ccc4c(NCCCN4CCCCC4)c3C(C1)C2 (racemic) [compound 7, 3-Chloro-6,7,10,11-tetrahydro-9-methyl-12-[(3-piperidinopropyl)amino]-7,11-methanocycloocta[b]quinoline] | 5.9 ± 0.4 | 48.4 ± 2.7 | –
CC1=CC2Cc3nc4cc(Cl)ccc4c(NCCCCC#N)c3C(C1)C2 (centres unmarked) [4a] | – | 26.9 ± 1.1 | –
NCCCCCCCCCNc1c2c(nc3cc(Cl)ccc13)CCCC2 [14e] | 5.8 ± 0.3 | 14.5 ± 1.6 | –
N#CCCCCCCCNc1c2c(nc3cc(Cl)ccc13)CCCC2 [12d, 8-[(6-Chloro-1,2,3,4-tetrahydroacridin-9-yl)amino]octanenitrile] | 14.7 ± 0.8 | 46 ± 6 | –
CC1=CC2Cc3nc4cc(Cl)ccc4c(NCCCCCCNC(=N)N)c3C(C1)C2 (centres unmarked) [6b, 1-{6-[(3-Chloro-6,7,10,11-tetrahydro-9-methyl-7,11-methanocycloocta[b]quinolin-12-yl)amino]hexyl}guanidine] | 2.9 ± 0.4 | 11.8 ± 1.3 | –
CC1=CC2Cc3nc4cc(Cl)ccc4c(NCCCCCCCCCN)c3C(C1)C2 (centres unmarked) [5e] | 7.1 ± 0.7 | 16.4 ± 1.8 | –
CC1=CC2Cc3nc4cc(Cl)ccc4c(NCc4ccc(C#N)cc4)c3C(C1)C2 (centres unmarked) [4h] | 19.3 ± 1.2 | 158 ± 21 | –
CC1=CC2Cc3nc4cc(Cl)ccc4c(NCCCCCC#N)c3C(C1)C2 (centres unmarked) [4b] | 12.4 ± 0.6 | 31.1 ± 3.1 | –
CC1=CC2Cc3nc4cc(Cl)ccc4c(NCCCCCCCCCCCN)c3C(C1)C2 (centres unmarked) [5g] | 4 ± 0.2 | 35.3 ± 3.9 | –
CC1=CC2Cc3nc4cc(Cl)ccc4c(N)c3C(C1)C2 (centres unmarked) [compound 1, huprine Y, reference compound] | – | 0.3 ± 0.01 | –
N#CCCCCCCCCNc1c2c(nc3cc(Cl)ccc13)CCCC2 [12e, 9-[(6-Chloro-1,2,3,4-tetrahydroacridin-9-yl)amino]nonanenitrile] | 5.4 ± 0.4 | 24.3 ± 4.5 | –
N#CCCCCCCCCNc1c2c(nc3ccccc13)CCCC2 [11e, 9-[(1,2,3,4-Tetrahydroacridin-9-yl)amino]nonanenitrile] | 7.6 ± 0.35 | 44.9 ± 1.6 | –
N=C(N)NCCCCCCCNc1c2c(nc3ccccc13)CCCC2 [15c, 1-{7-[(1,2,3,4-Tetrahydroacridin-9-yl)amino]heptyl}guanidine] | 5.9 ± 0.3 | 23.9 ± 2.6 | –
NCCCCCCCNc1c2c(nc3ccccc13)CCCC2 [13c] | 7.4 ± 0.1 | 23.9 ± 2.6 | –
NCCCCCCCCCNc1c2c(nc3ccccc13)CCCC2 [13e] | 6.9 ± 0.5 | 15.6 ± 1.5 | –
CN(C)CCCN1c2ccccc2Sc2ccccc21 [Promazine] | – | – | 8.8 10^−6 cm s^−1
CC1=CC2Cc3nc4cc(Cl)ccc4c(NCCCCCCCCN)c3C(C1)C2 (centres unmarked) [5d] | 9.8 ± 0.6 | 17.3 ± 1.2 | –
CC1=CC2Cc3nc4cc(Cl)ccc4c(NCCCCCCCCCNC(=N)N)c3C(C1)C2 (centres unmarked) [6e, 1-{9-[(3-Chloro-6,7,10,11-tetrahydro-9-methyl-7,11-methanocycloocta[b]quinolin-12-yl)amino]nonyl}guanidine] | 5.4 ± 0.3 | 10.6 ± 0.8 | –
CC1=C[C@@H]2Cc3nc4cc(Cl)ccc4c(NCc4ccc(CN)cc4)c3[C@H](C1)C2 [5h] | 11.7 ± 1.1 | – | –
N=C(N)NCCCCCCCCCNc1c2c(nc3ccccc13)CCCC2 [15e, 1-{9-[(1,2,3,4-Tetrahydroacridin-9-yl)amino]nonyl}guanidine] | 6.5 ± 0.3 | 30.5 ± 1.9 | –
N#CCCCCCCNc1c2c(nc3cc(Cl)ccc13)CCCC2 [12c, 7-[(6-Chloro-1,2,3,4-tetrahydroacridin-9-yl)amino]heptanenitrile] | 16.7 ± 0.9 | – | –
N#CCCCCCCNc1c2c(nc3ccccc13)CCCC2 [11c, 7-[(1,2,3,4-Tetrahydroacridin-9-yl)amino]heptanenitrile] | 11.2 ± 0.2 | 53.9 ± 3 | –
CC1=CC2Cc3nc4cc(Cl)ccc4c(NCCCCCCCN)c3C(C1)C2 (centres unmarked) [5c] | 7.6 ± 0.7 | 36 ± 3.5 | –
